Experimental data taken from ChEMBL document CHEMBL4680285, “Aminothiazolones as potent, selective and cell active inhibitors of the PIM kinase family” (Bioorg Med Chem, 2020).

Test: Half life in mouse liver microsomes
Type: ADME, Microsome

Structure (SMILES) | half-life [min]
N=C1NC(=O)/C(=C/c2csc(-c3ccc(C(F)(F)F)cc3)n2)S1 | > 100
O=C1NC(=S)S/C1=C\c1csc(-c2ccc(C(F)(F)F)cc2)n1 | 49
CN(c1cccc(-c2nc(/C=C3\SC(NCC(C)(C)CO)=NC3=O)cs2)c1)S(C)(=O)=O | 5.68
CN1CCC(CNC2=NC(=O)/C(=C/c3csc(-c4ccc(C(F)(F)F)cc4)n3)S2)CC1 | > 120
CN1CCC(CNC2=NC(=O)/C(=C/c3ccc(-c4cccc(Cl)c4)o3)S2)CC1 | > 120
CC(C)(CO)CNC1=NC(=O)/C(=C/c2csc(-c3cccc(OC(F)(F)F)c3)n2)S1 | > 120
CN1CCC(CNC2=NC(=O)/C(=C/c3csc(-c4cccc(N(C)S(C)(=O)=O)c4)n3)S2)CC1 | 27.5
CN(C)CCNC1=NC(=O)/C(=C/c2csc(-c3ccc(OC(F)(F)F)cc3)n2)S1 | > 120
CC(C)(CO)CNC1=NC(=O)/C(=C/c2csc(-c3ccc(OC(F)(F)F)cc3)n2)S1 | > 120

Now from value to molecule:

half-life [min] | Structure (SMILES)
> 120 | O=C1N=C(NCC2(CO)CCC2)S/C1=C\c1csc(-c2ccc(OC(F)(F)F)cc2)n1
781 | O=C1N=C(N[C@H]2CC[C@H](O)CC2)S/C1=C\c1csc(-c2ccc(OC(F)(F)F)cc2)n1
7.56 | CN(C)S(=O)(=O)Nc1cccc(-c2nc(/C=C3\SC(NCC(C)(C)CO)=NC3=O)cs2)c1
> 120 | O=C1N=C(NCC2(CO)CC2)S/C1=C\c1csc(-c2ccc(OC(F)(F)F)cc2)n1

Test: Half life in mouse liver S9 fraction
Type: ADME, subcellular

Structure (SMILES) | half-life [min]
CC(C)(CO)CNC1=NC(=O)/C(=C/c2csc(-c3cccc(F)c3O)n2)S1 | 44.4
O=C1N=C(NCC2CCN(CCO)CC2)S/C1=C\c1csc(-c2ccccc2O)n1 | > 120
O=C1N=C(NCC2(CO)CC2)S/C1=C\c1csc(-c2ccccc2O)n1 | 28.9
O=C1N=C(N[C@H]2CCC[C@@H]2CO)S/C1=C\c1csc(-c2cccc(F)c2O)n1 (stereo in doubt) | 22.1

Results, then the molecule that gave them:

half-life [min] | Structure (SMILES)
45.6 | CC(C)(CO)CNC1=NC(=O)/C(=C/c2csc(-c3ccc(F)cc3O)n2)S1
84.2 | CC(C)(CO)CNC1=NC(=O)/C(=C/c2csc(-c3cccc(OC(F)(F)F)c3O)n2)S1
